Key:
[1] = system: barnyardgrass; test: Test A pre-/postemergence herbicide test; format: in vivo, Echinochloa crus-galli
Summary of the method: (§1)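 Seeds in loam–sand blend received preemergence directed soil spray; separately, plants 2–10 cm at one- to two-leaf stage received postemergence spray, both with test chemicals in non-phytotoxic solvent with surfactant. After ~10 days in greenhouse, injury rated visually against untreated controls, 0 (no effect) to 100 (complete control).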

[2] = system: kochia; test: Test A pre-/postemergence herbicide test; format: in vivo, Kochia scoparia; conditions: for Plant response rating, Kochia: 0 to 100 scale
Summary of the method: as §1

[3] = system: ragweed; test: Test A pre-/postemergence herbicide test; format: in vivo, Ambrosia elatior; conditions: for Plant response rating, Ragweed: 0 to 100 scale
Summary of the method: as §1

[4] = system: ryegrass, Italian; test: Test A pre-/postemergence herbicide test; format: in vivo, Lolium multiflorum; conditions: for Plant response rating, Ryegrass, Italian: 0 to 100 scale
Summary of the method: as §1

[5] = system: giant foxtail; test: Test A pre-/postemergence herbicide test; format: in vivo, Setaria faberii; conditions: for Plant response rating, Foxtail, Giant: 0 to 100 scale
Summary of the method: as §1

[6] = system: pigweed; test: Test A pre-/postemergence herbicide test; format: in vivo, Amaranthus retroflexus; conditions: for Plant response rating, Pigweed: 0 to 100 scale
Summary of the method: as §1

[7] = system: wheat; test: Test A pre-/postemergence herbicide test; format: in vivo, Triticum aestivum; conditions: Postemergence; for Plant response rating, Wheat: 125 g ai/ha, 0 to 100 scale, 0 is no effect, 100 is complete control; for Wheat plant response rating (0 to 100 scale, 0 is no effect, 100 is complete control): 500 g ai/ha
Summary of the method: as §1

[8] = system: corn; test: Test A pre-/postemergence herbicide test; format: in vivo, Zea mays; conditions: Postemergence; for Plant response rating, Corn: 125 g ai/ha, 0 to 100 scale, 0 is no effect, 100 is complete control; for Corn plant response rating (0 to 100 scale, 0 is no effect, 100 is complete control): 500 g ai/ha
Summary of the method: as §1

[9] = system: blackgrass; test: Test A postemergence herbicide test; format: in vivo, Alopecurus myosuroides; conditions: for Plant response rating, Blackgrass: 125 g ai/ha, 0 to 100 scale, 0 is no effect, 100 is complete control; for Blackgrass plant response rating (0 to 100 scale, 0 is no effect, 100 is complete control): 500 g ai/ha
Summary of the method: (§2)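 Ratings compare treated with untreated plants roughly 10 days after a postemergence application made at the one- to two-leaf stage. Scoring uses 0–100, where 0 means no effect and 100 complete control.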

[10] = system: galium; test: Test A postemergence herbicide test; format: in vivo, Galium aparine; conditions: for Plant response rating, Galium: 125 g ai/ha, 0 to 100 scale, 0 is no effect, 100 is complete control; for Galium plant response rating (0 to 100 scale, 0 is no effect, 100 is complete control): 500 g ai/ha
Summary of the method: as §2

[11] = system: rice; test: Test B flooded paddy test; format: in vivo, Oryza sativa; conditions: 500 g ai/ha, Flood; scale of 0 to 100 where 0 is no effect and 100 is complete control
Summary of the method: (§3)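 Plants grown to 2-leaf stage; pots flooded 3 cm above soil and compound applied directly into paddy water, depth held throughout. Visual rating against untreated controls after 13 to 15 days in greenhouse, 0 (no effect) to 100 (complete control).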

[12] = system: sedge, umbrella; test: Test B flooded paddy test; format: in vivo, Cyperus difformis; conditions: 500 g ai/ha, Flood; scale of 0 to 100 where 0 is no effect and 100 is complete control
Summary of the method: as §3

[13] = system: ducksalad; test: Test B flooded paddy test; format: in vivo, Heteranthera limosa; conditions: 500 g ai/ha, Flood; scale of 0 to 100 where 0 is no effect and 100 is complete control
Summary of the method: as §3

[14] = system: barnyardgrass; test: Test B flooded paddy test; format: in vivo, Echinochloa crus-galli; conditions: 500 g ai/ha, Flood; scale of 0 to 100 where 0 is no effect and 100 is complete control
Summary of the method: as §3

[15] = 125 g ai/ha, visual rating, 0 to 100 scale, 0 no effect, 100 complete control, approximately 10 days, preemergence
[16] = Postemergence, 125 g ai/ha, 0 to 100 scale, 0 is no effect, 100 is complete control
[17] = preemergence, 500 g ai/ha, 0 to 100 scale (0 no effect, 100 complete control)
[18] = 125 g ai/ha, visual rating, 0 no effect, 100 complete control, approximately 10 days, preemergence
[19] = Postemergence, 125 g ai/ha, 0 is no effect, 100 is complete control
[20] = preemergence, 500 g ai/ha, 0 is no effect and 100 is complete control

Compound	Plant response rating, Barnyardgrass [1, 15]	Plant response rating, Barnyardgrass [1, 16]	Barnyardgrass plant response rating (0 to 100 scale, 0 is no effect, 100 is complete control) ([1]; Postemergence, 500 g ai/ha)	Plant response rating, Barnyardgrass [1, 17]	Plant response rating, Kochia [2, 18]	Plant response rating, Kochia [2, 19]	Kochia plant response rating (0 to 100 scale, 0 is no effect, 100 is complete control) ([2]; Postemergence, 500 g ai/ha)	Plant response rating, Kochia [2, 20]	Plant response rating, Ragweed [3, 18]	Plant response rating, Ragweed [3, 19]	Ragweed plant response rating (0 to 100 scale, 0 is no effect, 100 is complete control) ([3]; Postemergence, 500 g ai/ha)	Plant response rating, Ragweed [3, 20]	Plant response rating, Ryegrass, Italian [4, 18]	Plant response rating, Ryegrass, Italian [4, 19]	Ryegrass, Italian plant response rating (0 to 100 scale, 0 is no effect, 100 is complete control) ([4]; Postemergence, 500 g ai/ha)	Plant response rating, Ryegrass, Italian [4, 20]	Plant response rating, Foxtail, Giant [5, 18]	Plant response rating, Foxtail, Giant [5, 19]	Foxtail, Giant plant response rating (0 to 100 scale, 0 is no effect, 100 is complete control) ([5]; Postemergence, 500 g ai/ha)	Plant response rating, Foxtail, Giant ([5]; preemergence, 500 g ai/ha)	also measured
O=C1NCC(c2cccc(C(F)F)c2)C1C(=O)Nc1ccc(F)c(F)c1F (racemic) [Compound 165]	90	90	90	90	70	50	70	70	0	20	50	80	0	40	50	20	90	70	90	90	Plant response rating, Pigweed [6, 18]: 50; Plant response rating, Pigweed [6, 19]: 30; Pigweed plant response rating (0 to 100 scale, 0 is no effect, 100 is complete control) ([6]; Postemergence, 500 g ai/ha): 50; Plant response rating, Pigweed [6, 20]: 70; Plant response rating, Wheat [7]: 30; Wheat plant response rating (0 to 100 scale, 0 is no effect, 100 is complete control) [7]: 70; Plant response rating, Corn [8]: 60; Corn plant response rating (0 to 100 scale, 0 is no effect, 100 is complete control) [8]: 80; Plant response rating, Blackgrass [9]: 60; Blackgrass plant response rating (0 to 100 scale, 0 is no effect, 100 is complete control) [9]: 70; Plant response rating, Galium [10]: 40; Galium plant response rating (0 to 100 scale, 0 is no effect, 100 is complete control) [10]: 50; Plant response rating, Rice [11]: 10; Plant response rating, Sedge, Umbrella [12]: 0; Plant response rating, Ducksalad [13]: 100; Plant response rating, Barnyardgrass [14]: 75
O=C1NCC(c2cccc(C3CC3)c2)C1C(=O)Nc1ccccc1F (racemic) [Compound 166]	80	80	80	90	30	30	70	70	0	0	0	50	20	0	50	60	90	80	90	90	Plant response rating, Pigweed [6, 18]: 0; Plant response rating, Pigweed [6, 19]: 40; Pigweed plant response rating (0 to 100 scale, 0 is no effect, 100 is complete control) ([6]; Postemergence, 500 g ai/ha): 50; Plant response rating, Pigweed [6, 20]: 10; Plant response rating, Wheat [7]: 20; Wheat plant response rating (0 to 100 scale, 0 is no effect, 100 is complete control) [7]: 50; Plant response rating, Corn [8]: 30; Corn plant response rating (0 to 100 scale, 0 is no effect, 100 is complete control) [8]: 80; Plant response rating, Blackgrass [9]: 50; Blackgrass plant response rating (0 to 100 scale, 0 is no effect, 100 is complete control) [9]: 60; Plant response rating, Galium [10]: 20; Galium plant response rating (0 to 100 scale, 0 is no effect, 100 is complete control) [10]: 60; Plant response rating, Rice [11]: 0; Plant response rating, Sedge, Umbrella [12]: 0; Plant response rating, Ducksalad [13]: 100; Plant response rating, Barnyardgrass [14]: 75
O=C1NCC(c2cccc(C3CC3)c2)C1C(=O)Nc1cccc(F)c1F (racemic) [Compound 167]	90	90	90	90	20	30	50	60	0	20	50	50	20	20	40	70	90	90	90	90	Plant response rating, Pigweed [6, 18]: 50; Plant response rating, Pigweed [6, 19]: 0; Pigweed plant response rating (0 to 100 scale, 0 is no effect, 100 is complete control) ([6]; Postemergence, 500 g ai/ha): 0; Plant response rating, Pigweed [6, 20]: 50; Plant response rating, Wheat [7]: 0; Wheat plant response rating (0 to 100 scale, 0 is no effect, 100 is complete control) [7]: 50; Plant response rating, Corn [8]: 0; Corn plant response rating (0 to 100 scale, 0 is no effect, 100 is complete control) [8]: 70; Plant response rating, Blackgrass [9]: 50; Blackgrass plant response rating (0 to 100 scale, 0 is no effect, 100 is complete control) [9]: 60; Plant response rating, Galium [10]: 50; Galium plant response rating (0 to 100 scale, 0 is no effect, 100 is complete control) [10]: 60; Plant response rating, Rice [11]: 10; Plant response rating, Sedge, Umbrella [12]: 0; Plant response rating, Ducksalad [13]: 100; Plant response rating, Barnyardgrass [14]: 75

— US10294202B2, “Pyrrolidinones as herbicides” (FMC Corporation, priority 2013, dated 2019)
